Experimental data: patent US20240059695A1, “SUBSTITUTED IMIDAZO[1,5-b]PYRIDAZINE COMPOUNDS AS KINASE INHIBITORS AND USE THEREOF” (IMPACT THERAPEUTICS (SHANGHAI), INC, priority 2020, published 2024)
Like-named read-outs stand apart in the source and are kept apart here.

Legend:
[1] = test system: human colon cancer LoVo cell; assay: MTT proliferation assay, LoVo; type: cell-based; conditions: read-out: IC50 (nM), proliferation of LoVo cell
Protocol: (§1) The cells were seeded into 96-well cell culture plate with a density of 2000/4000 cells per well and incubated overnight in a 5% CO2 incubator at 37° C. […] 5 μL diluent of each concentration was added to 120 μL of medium (25 times diluted) and mixed by shaking. The overnight cell plates were taken and the culture medium was removed, 195 μL of fresh medium was added to each well, and 5 μL of diluted medium containing the corresponding concentration of the test compound was added respectively (the final concentration of DMSO is 1%), and the culture plate was then placed in a 5% CO2 incubator at 37° C. for 4 days. After removing the original solution, 100 SEL of fresh serum-free DMEM medium containing MTT (0.5 mg/mL) was added to each well, the culture was continued. […] Cell viability (%)=(ODcompound−ODbackground)/ODDMSO−ODbackground)×100. GraphPad Prism 6.0 was used to analyze the data. The inhibitory activity of compounds on cell proliferation was plotted based on cell viability and the logarithm of compound concentration. The IC5.0 value was fitted by a sigmoidal dose response curve equation Y=100/(1+10^(LogC-LogIC50)), wherein C was the concentration of compound.

ATR/ATRIP enzyme = target: T1, ATR/ATRIP enzyme (Homo sapiens, UniProt Q13535); assay: ATR enzyme activity experiment (HTRF); type: biochemical; conditions: p53 substrate, 30 min room temperature, read-out: IC50 (nM), inhibitory effect on ATR kinase activity
T1 construct: purchased Eurofins 14-953
T1 sequence (Q13535 whole entry): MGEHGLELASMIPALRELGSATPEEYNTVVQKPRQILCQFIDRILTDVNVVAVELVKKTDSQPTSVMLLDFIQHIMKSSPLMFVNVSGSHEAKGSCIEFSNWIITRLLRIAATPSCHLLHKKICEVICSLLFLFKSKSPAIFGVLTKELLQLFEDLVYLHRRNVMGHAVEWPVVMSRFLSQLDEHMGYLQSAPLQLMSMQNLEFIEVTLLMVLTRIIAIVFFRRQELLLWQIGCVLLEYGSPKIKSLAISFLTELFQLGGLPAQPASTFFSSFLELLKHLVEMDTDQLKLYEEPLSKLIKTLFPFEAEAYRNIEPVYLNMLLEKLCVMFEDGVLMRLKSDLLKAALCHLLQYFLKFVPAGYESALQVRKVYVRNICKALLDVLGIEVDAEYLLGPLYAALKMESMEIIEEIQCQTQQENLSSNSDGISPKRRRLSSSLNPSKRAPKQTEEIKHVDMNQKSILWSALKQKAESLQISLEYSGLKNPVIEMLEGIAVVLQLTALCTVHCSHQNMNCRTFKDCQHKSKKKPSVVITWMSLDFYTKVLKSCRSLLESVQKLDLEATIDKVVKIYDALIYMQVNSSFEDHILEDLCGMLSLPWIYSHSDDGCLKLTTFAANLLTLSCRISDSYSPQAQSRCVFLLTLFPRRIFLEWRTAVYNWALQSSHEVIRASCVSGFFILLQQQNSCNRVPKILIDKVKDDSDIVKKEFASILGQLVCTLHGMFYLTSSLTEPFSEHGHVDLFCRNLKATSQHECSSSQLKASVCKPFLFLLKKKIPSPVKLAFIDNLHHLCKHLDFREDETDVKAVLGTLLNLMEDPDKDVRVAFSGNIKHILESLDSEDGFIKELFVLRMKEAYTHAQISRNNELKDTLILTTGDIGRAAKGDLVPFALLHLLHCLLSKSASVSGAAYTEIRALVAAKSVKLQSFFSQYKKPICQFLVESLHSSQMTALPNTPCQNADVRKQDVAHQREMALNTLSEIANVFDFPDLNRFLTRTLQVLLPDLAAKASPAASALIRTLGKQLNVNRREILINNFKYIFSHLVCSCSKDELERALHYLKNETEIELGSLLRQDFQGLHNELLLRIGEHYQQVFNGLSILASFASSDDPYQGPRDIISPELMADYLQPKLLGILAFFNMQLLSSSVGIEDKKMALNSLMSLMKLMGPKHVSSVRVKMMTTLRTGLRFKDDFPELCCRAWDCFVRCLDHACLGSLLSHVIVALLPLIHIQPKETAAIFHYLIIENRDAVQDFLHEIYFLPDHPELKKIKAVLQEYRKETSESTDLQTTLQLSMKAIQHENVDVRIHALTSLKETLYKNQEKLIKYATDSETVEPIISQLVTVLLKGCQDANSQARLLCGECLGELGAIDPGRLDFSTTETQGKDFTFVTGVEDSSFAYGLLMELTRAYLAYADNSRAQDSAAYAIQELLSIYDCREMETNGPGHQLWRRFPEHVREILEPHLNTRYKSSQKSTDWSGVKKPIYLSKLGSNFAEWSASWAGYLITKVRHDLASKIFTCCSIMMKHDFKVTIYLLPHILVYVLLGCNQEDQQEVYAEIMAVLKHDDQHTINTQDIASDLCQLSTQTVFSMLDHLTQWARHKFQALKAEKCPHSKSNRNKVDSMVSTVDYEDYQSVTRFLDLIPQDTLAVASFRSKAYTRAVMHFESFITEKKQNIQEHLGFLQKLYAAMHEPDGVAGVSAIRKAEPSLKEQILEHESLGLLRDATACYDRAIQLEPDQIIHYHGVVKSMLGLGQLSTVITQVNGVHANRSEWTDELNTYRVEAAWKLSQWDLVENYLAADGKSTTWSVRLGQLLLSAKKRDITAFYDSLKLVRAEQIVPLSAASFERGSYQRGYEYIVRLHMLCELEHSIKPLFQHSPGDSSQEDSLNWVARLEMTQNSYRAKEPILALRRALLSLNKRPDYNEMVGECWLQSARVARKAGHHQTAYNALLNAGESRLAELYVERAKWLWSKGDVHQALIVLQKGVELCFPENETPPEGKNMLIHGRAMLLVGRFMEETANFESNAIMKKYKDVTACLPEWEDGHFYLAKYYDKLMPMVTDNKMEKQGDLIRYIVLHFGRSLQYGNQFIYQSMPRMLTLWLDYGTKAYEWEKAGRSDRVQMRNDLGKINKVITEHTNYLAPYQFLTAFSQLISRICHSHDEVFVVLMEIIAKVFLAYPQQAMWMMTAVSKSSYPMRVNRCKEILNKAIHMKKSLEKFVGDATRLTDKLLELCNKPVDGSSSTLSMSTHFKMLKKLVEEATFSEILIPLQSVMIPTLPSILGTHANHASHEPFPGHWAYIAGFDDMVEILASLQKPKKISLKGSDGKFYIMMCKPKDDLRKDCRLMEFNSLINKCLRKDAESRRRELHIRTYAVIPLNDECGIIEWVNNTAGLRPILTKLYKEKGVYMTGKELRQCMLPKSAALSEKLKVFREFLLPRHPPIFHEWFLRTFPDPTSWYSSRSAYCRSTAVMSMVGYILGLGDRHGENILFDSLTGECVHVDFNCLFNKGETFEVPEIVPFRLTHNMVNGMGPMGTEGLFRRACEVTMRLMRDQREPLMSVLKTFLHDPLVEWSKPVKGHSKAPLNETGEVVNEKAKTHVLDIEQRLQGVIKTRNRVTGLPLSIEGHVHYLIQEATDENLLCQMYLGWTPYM
T1 sequence (Q8WXE1 whole entry partner): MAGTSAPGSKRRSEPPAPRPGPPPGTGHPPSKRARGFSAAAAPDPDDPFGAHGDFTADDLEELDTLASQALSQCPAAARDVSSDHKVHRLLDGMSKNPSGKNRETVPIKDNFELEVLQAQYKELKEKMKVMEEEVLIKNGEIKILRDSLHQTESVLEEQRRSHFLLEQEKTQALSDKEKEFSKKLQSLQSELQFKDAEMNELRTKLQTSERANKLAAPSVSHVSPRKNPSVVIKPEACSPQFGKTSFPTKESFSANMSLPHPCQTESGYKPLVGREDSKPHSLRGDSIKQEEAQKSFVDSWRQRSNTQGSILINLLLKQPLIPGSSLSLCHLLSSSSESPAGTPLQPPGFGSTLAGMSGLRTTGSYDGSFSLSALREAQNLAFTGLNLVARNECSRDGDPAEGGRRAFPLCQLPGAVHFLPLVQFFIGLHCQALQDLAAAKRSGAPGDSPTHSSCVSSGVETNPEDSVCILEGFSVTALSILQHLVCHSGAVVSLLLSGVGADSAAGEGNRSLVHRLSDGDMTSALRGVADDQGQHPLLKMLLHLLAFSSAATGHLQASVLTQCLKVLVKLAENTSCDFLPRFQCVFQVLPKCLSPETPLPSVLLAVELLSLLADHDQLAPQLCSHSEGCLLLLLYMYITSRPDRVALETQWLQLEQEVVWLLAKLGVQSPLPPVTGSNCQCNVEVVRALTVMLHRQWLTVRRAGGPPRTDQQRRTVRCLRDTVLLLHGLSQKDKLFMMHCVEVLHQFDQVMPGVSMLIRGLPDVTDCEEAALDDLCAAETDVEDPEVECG
Protocol: The mixture was centrifuged at 1000 rpm for 1 minute, and reacted at room temperature protected from light for 30 minutes. Then 5 μL of EDTA stop solution (250 mM) was added to stop the reaction.

[2] = test system: human lung cancer NCI-H460 cell; assay: MTT proliferation assay, NCI-H460; type: cell-based; conditions: NCI-H460, 96 h, read-out: IC50 (nM), proliferation of NCI-H460 cell
Protocol: The cells were digested by trypsinase and centrifuged at 800 rpm for 5 minutes, the supernatant was discarded, and the residual was resuspended with fresh medium […]) and counted.
as §1, with “μL” for “SEL”, “(%)=(ODcompound−ODbackground)/(ODDMSO−ODbackground)×100.” for “(%)=(ODcompound−ODbackground)/ODDMSO−ODbackground)×100.”, “IC50” for “IC5.0”, “[…],” for “Y=100/(1+10^(LogC-LogIC50)),”

[3] = Pharmacokinetics following single oral administration to mice; type: in vivo; conditions: mouse, CD-1 (ICR) mice, gavage 10 mg/kg, 0.5% methylcellulose/water suspension, plasma
Protocol: The compound of the present invention was formulated into a 0.5% methylcellulose/water uniform suspension, and was administered to CD-1 (ICR) mice by gavage at 10 mg/kg. Plasma samples were collected at 8 time points of 0.250, 0.500, 1.00, 2.00, 4.00, 6.00, 8.00 and 24.0 hours post-dose. Concentrations of the compound were determined by LC-MS/MS method.

[4] = Homo sapiens, LoVo, 96 h, MTT, 4 days

Row | Compound | IC50 [1, 4] [nM] | IC50 (ATR/ATRIP enzyme) [nM] | IC50 ([2]; MTT, 4 days) [nM] | IC50 ([1]; MTT, 4 days) [nM] | IC50 ([1]; Homo sapiens, LoVo, 96 h) [nM] | IC50 [2] [nM] | AUC(0-inf) [3] [ng·h/mL] | AUC(0-t) [3] [ng·h/mL] | Cmax [3] [ng/mL] | half-life [3] [h]
1 | Cc1ccc(-c2cc(N3CCOC[C@H]3C)nn3c(-c4ccn[nH]4)nc(C)c23)cn1 [Example 17, (R)-3-methyl-4-(5-methyl-4-(6-methylpyridin-3yl)-7-(1H-pyrazol-5-yl)imidazo[1,5-b]pyridazin-2-yl)morpholine] | 49.1 | 18 | 45.8 |  |  |  |  |  |  | 
2 | Cc1nc(-c2ccn[nH]2)n2nc(N3CCOC[C@H]3C)cc(-c3cccnc3F)c12 [Example 16, (R)-4-(4-(2-fluoropyridin-3-yl)-5-methyl-7-(1H-pyrazol-5-yl)imidazo[1,5-b]pyridazin-2-yl)-3-methylmorpholine] | 17.6 | 9 | 12.5 |  |  |  |  |  |  | 
3 | Cc1nc(-c2ccn[nH]2)n2nc(N3CCOC[C@H]3C)cc(-c3ccncc3F)c12 [Example 18, (R)-4-(4-(3-fluoropyridin-4-yl)-5-methyl-7-(1H-pyrazol-5-yl)imidazo[1,5-b]pyridazin-2-yl)-3-methylmorpholine] | 41.8 | 10 | 28 | 47.2 |  |  |  |  |  | 
4 | Cc1nc(-c2ccn[nH]2)n2nc(N3CCOC[C@H]3C)cc(-c3ccnn3C(C)C)c12 [Example 9, (R)-4-(4-(1-isopropyl-1H-pyrazol-5-yl)-5-methyl-7-(1H-pyrazol-5-yl)imidazo[1,5-b]pyridazin-2-yl)-3-methylmorpholine] | 39.3 | 3 | 30.2 |  |  |  |  |  |  | 
5 | CCc1nc(-c2ccn[nH]2)n2nc(N3CCOC[C@H]3C)cc(-c3ccnn3C)c12 [Example 24, (R)-4-(5-ethyl-4-(1-methyl-1H-pyrazol-5-yl)-7-(1H-pyrazol-5-yl)imidazo[1,5-b]pyridazin-2-yl)-3-methylmorpholine] |  | 2 |  |  | 38.8 | 28 | 171000 | 162000 | 15400 | 5.4
6 | Cc1nc(-c2ccn[nH]2)n2nc(N3CCOC[C@H]3C)cc(-c3ccn(C(F)F)n3)c12 [Example 10, (R)-4-(4-(1-(difluoromethyl)-1H-pyrazol-3-yl)-5-methyl-7-(1H-pyrazol-5-yl)imidazo[1,5-b]pyridazin-2-yl)-3-methylmorpholine] | 116 | 217 | 97.3 |  |  |  |  |  |  | 
7 | CC(C)c1nc(-c2ccn[nH]2)n2nc(N3CCOC[C@H]3C)cc(-c3ccnn3C)c12 [Example 26, (R)-4-(5-isopropyl-4-(1-methyl-1H-pyrazol-5-yl)-7-(1H-pyrazol-5-yl)imidazo[1,5-b]pyridazin-2-yl)-3-methylmorpholine] | 27.4 | 1 | 22.8 |  |  |  | 49000 | 46400 | 7180 | 5.82
8 | Cc1nc(-c2ccn[nH]2)n2nc(N3CCOC[C@H]3C)cc(-c3ccccc3F)c12 [Example 14, (R)-4-(4-(2-fluorophenyl)-5-methyl-7-(1H-pyrazol-5-yl)imidazo[1,5-b]pyridazin-2-yl)-3-methylmorpholine] | 26.2 | 10 | 32 |  |  |  | 78700 | 77300 | 10800 | 3.75
9 | C=Cc1nc(-c2ccn[nH]2)n2nc(N3CCOC[C@H]3C)cc(-c3ccnn3C)c12 [Example 23, (R)-3-methyl-4-(4-(1-methyl-1H-pyrazol-5-yl)-7-(1H-pyrazol-5-yl)-5-vinylimidazo[1,5-b]pyridazin-2-yl)morpholine] | 39.1 | 2 | 32 |  |  |  | 24100 | 22400 | 6610 | 1.66
10 | Cc1nc(-c2ccn[nH]2)n2nc(N3CCOC[C@H]3C)cc(-c3cccc(C#N)c3)c12 [Example 6, (R)-3-(5-methyl-2-(3-methylmorpholino)-7-(1H-pyrazol-5-yl)imidazol, [1,5-b]pyridazin-4-yl)benzonitrile] | 44.1 | 5 | 21.8 |  |  |  |  |  |  | 
11 | Cc1cc(-c2nc(C)c3c(-c4ccnn4C)cc(N4CCOC[C@H]4C)nn23)[nH]n1 [Example 8, (R)-3-methyl-4-(5-methyl-4-(1-methyl-1H-pyrazol-5-yl)-7-(3-methyl-1H-pyrazol-5-yl)imidazo[1,5-b]pyridazin-2-yl)morpholine] | 17.9 | 4 | 14.9 |  |  |  |  |  |  | 
12 | C[C@@H]1COCCN1c1cc(-c2ccnn2C)c2c(F)nc(-c3ccn[nH]3)n2n1 [Example 20, (R)-4-(5-fluoro-4-(1-methyl-1H-pyrazol-5-yl)-7-(1H-pyrazol-5-yl)imidazo[1,5-b]pyridazin-2-yl)-3-methylmorpholine] | 79.1 | 41 | 89.9 |  |  |  |  |  |  | 
13 | Cc1nn(C)cc1-c1cc(N2CCOC[C@H]2C)nn2c(-c3ccn[nH]3)nc(C)c12 [Example 13, (R)-4-(4-(1,3-dimethyl-1H-pyrazol-4-yl)-5-methyl-7-(1H-pyrazol-5-yl)imidazo[1,5-b]pyridazin-2-yl)-3-methylmorpholine] | 46.5 | 14 | 33.2 |  |  |  |  |  |  | 
14 | C[C@@H]1COCCN1c1nc(-c2ccnn2C)c2cnc(-c3cc[nH]n3)n2n1 [Example 27, (R)-3-methyl-4-(4-(1-methyl-1H-pyrazol-5-yl)-7-(1H-pyrazol-3-yl)imidazo[5,1-f][1,2,4]triazin-2-yl)morpholine] | 110 |  | 68.3 |  |  |  |  |  |  | 
15 | Cc1nc(-c2ccn[nH]2)n2nc(N3CCOC[C@H]3C)cc(-c3cnn(C)c3C)c12 [Example 12, (R)-4-(4-(1,5-dimethyl-1H-pyrazol-4-yl)-5-methyl-7-(1H-pyrazol-5-yl)imidazo[1,5-b]pyridazin-2-yl)-3-methylmorpholine] | 19.6 | 1 | 28 |  |  |  |  |  |  | 
16 | Cc1cc(S(C)(=O)=O)ccc1-c1cc(N2CCOC[C@H]2C)nn2c(-c3ccn[nH]3)nc(C)c12 [Example 15, (R)-3-methyl-4-(5-methyl-4-(2-methyl-4-(methylsulfonyl)phenyl)-7-(1H-pyrazol-5-yl)imidazo[1,5-b]pyridazin-2-34)morpholine] | 19.5 | 6 | 12.5 |  |  |  |  |  |  | 
17 | Cc1nc(-c2ccn[nH]2)n2nc(N3CCOC[C@H]3C)cc(C3CCOCC3)c12 [Example 7, (R)-3-methyl-4-(5-methyl-7-(1H-pyrazol-5-yl)-4-(tetrahydro-2H-pyran-4-yl)imidazol[1,5-b]pyridazin-2-yl)morpholine] | 24.6 | 1 | 15.7 |  |  |  |  |  |  | 
18 | Cc1ccccc1-c1cc(N2CCOC[C@H]2C)nn2c(-c3ccn[nH]3)nc(C)c12 [Example 3, (R)-3-methyl-4-(5-methyl-7-(1H-pyrazol-5-yl)-4-(o-tolyl)imidazo[1,5-b]pyridazin-2-yl)morpholine] | 49.5 | 2 | 27.3 |  |  |  |  |  |  | 
19 | CCn1nccc1-c1cc(N2CCOC[C@H]2C)nn2c(-c3ccn[nH]3)nc(C)c12 [Example 2, (R)-4-(4-(1-ethyl-1H-pyrazol-5-yl)-5-methyl-7-(1H-pyrazol-5-yl)imidazo[1,5-b]pyridazin-2-yl)-3-methylmorpholine] | 43.6 | 3 | 21.9 |  |  |  |  |  |  | 
20 | Cc1cnn(C)c1-c1cc(N2CCOC[C@H]2C)nn2c(-c3ccn[nH]3)nc(C)c12 [Example 11, (R)-4-(4-(1,4-dimethyl-1H-pyrazol-5-yl)-5-methyl-7-(1H-pyrazol-5-yl)imidazo[1,5-b]pyridazin-2-yl)-3-methylmorpholine] |  | 2 | 30.1 |  |  |  |  |  |  | 
